Assay results published in patent publication US20200399329A1, “ANTIMICROBIAL PEPTIDES” (priority 2015, published 2020).
Where a SMILES comes first, the peptide text is derived from it.

Key:
[1] = test system: E. coli; assay: E. coli growth monitored via OD600 nm with CecA or OMN6; type: cell-based
Description: An assay was conducted in order to compare the antimicrobial activity of the native peptide Cecropin A (CecA) vs. a peptide of the invention OMN6. E. coli bacteria were cultured with CecA or OMN6 in concentration of 12.5 μM for 17-20 hours. The growth of the bacteria was continuously monitored via spectrophotometry at 600 nm. As bacterial growth progresses, OD600 nm values rise, and where the growth is inhibited OD600 nm values remain constant. […] The bacteria completely overcame the inhibitory effect of CecA after 10 hours. The bacteria then continued to thrive and grow to density similar to that of the CTRL group.

[2] = test system: human primary erythrocytes; assay: Hemolysis, cell count and MCV of human primary erythrocytes; type: cell-based
Description: Since the peptides of the invention are intended inter-alia to operate in wounds or other damaged tissue, a direct contact with patients' blood may occur. Accordingly, an experiment was conducted in order to assess whether OMN6 has cytotoxic effects on human primary erythrocytes. These cells lack any defense mechanism to protect them against damage to the plasma membrane and therefor are a standard model for evaluating cytotoxic effects on eukaryotic cells. The parameter that was measured was the ability of OMN6 to cause hemolysis, red blood cells death, in human erythrocytes. The experiments were performed on human blood samples using ABX PENTRA DF120 machine routinely used by hospital personnel to conduct such tests.
The Mean Corpuscular Volume (MCV) of the erythrocytes is a well-accepted indication of the cells' health and membrane integrity. The experiment was conducted to assess whether OMN6, which forms pores in bacterial membranes, has the ability to damage human cells plasma-membrane. […] (Table 5).
Table 4 and Table 5: hemolysis and Mean Corpuscular Values (MCV) of human primary erythrocytes were evaluated after treatment with OMN6.

[3] = test system: E. coli CR BAA-2452; type: cell-based, Escherichia coli; conditions: OMN6 12.5 μM, FIG. 6D
Description: In order to determine the MIC values of the peptides, growth and inhibition of various bacteria were monitored after treatment with the peptides of the invention (Table 6).
E. coli bacteria were cultured with or without OMN6 in increasing concentrations of 0.8-200 μM and with or without Fetal Bovine Serum 10% for 17-20 hours. The growth of the bacteria was continuously monitored via spectrophotometry at 600 nm. As bacterial growth progresses, OD600 nm values rise, and where the growth is inhibited OD600 nm values remain constant.
E. coli NDM1 is a Carbapenem resistant strain of bacteria. The experimental system described above was used to determine the antimicrobial effect of OMN6 on this bacteria compared to the antibiotic drug Imipenem (IPM), a member of the Carbapenem family of antibiotics. The MIC value for IPM on sensitive E. coli is 4 μg/ml, in a MIC above 8 μg/ml the bacteria is considered resistant.
The experimental system and parameters described here were used to determine the MIC values of OMN2, OMN6, OMN7 and OMN11 on various bacteria strains (Table 7 and Table 8).

[4] = Preliminary topical safety in mice; type: in vivo; conditions: topical single dose 0.5-4 mg/kg
Description: The antimicrobial peptide OMN6 was administered to mice in order to evaluate and quantify whether toxic effects are present. OMN6 peptide (C195H332N56O49S3) was administered topically according to concentrations and groups detailed in Table 9.
Mice approved for this experiment: Outbred Hsd:ICR (CD-1®)—weight 18-20 g. Saline solution (0.9% NaCl) as sham treatment or OMN6 dissolved in saline were administered directly onto the skin of mice after the hair was shaved. A total volume of 16 μl was administered to each animal.
In this experiment, the peptide OMN6 of the invention was administered in a single dose, at four different concentrations (mg/kg). Mortality of mice in all experiment groups was monitored in comparison to a Sham (CTRL) group. Food and water consumption, post treatment, was monitored by individual weight measurements once every two days. At the end of the experiment, blood was taken from all animals and 200 μl of blood was separated and plasma was analyzed for erythrocyte hemolysis. • Experimental Map: • 1. Mice (six per group) were given a single-dose administration on day 1, according to group specification (Table 9). Food and water consumption (weight analysis) along with mortality of mice in all groups were monitored for four days post treatment. At the end of the five day trial, the animals were sacrificed. • 2. Free Hgb (hemoglobin) assay was performed on day 5, on all samples from all groups, for erythrocyte hemolysis analysis. • 3. Water/food availability, temperature and other conditions remained unchanged between the groups for the entire five day trial. • 4. Erythrocyte hemolysis analysis was performed via hemoglobin assay kit (Sigma-Aldrich, 3 Plaut St. Rehovot, Israel).

CC[C@H](C)[C@H](NC(=O)CNC(=O)[C@H](CC(=O)O)NC(=O)[C@H](CCCNC(=N)N)NC(=O)[C@@H](NC(=O)[C@H](CC(N)=O)NC(=O)[C@H](CCC(N)=O)NC(=O)CNC(=O)[C@@H](NC(=O)[C@H](CCCCN)NC(=O)[C@H](CCC(=O)O)NC(=O)[C@@H](NC(=O)[C@H](CCCCN)NC(=O)[C@H](CCCCN)NC(=O)[C@H](Cc1ccccc1)NC(=O)[C@H](CC(C)C)NC(=O)[C@H](CCCCN)NC(=O)[C@H](Cc1c[nH]c2ccccc12)NC(=O)[C@H](CCCCN)NC(=O)[C@H](CS)NC(=O)[C@@H](N)CCSC)[C@@H](C)CC)C(C)C)[C@@H](C)CC)C(=O)N[C@H](C(=O)N[C@@H](CCCCN)C(=O)N[C@@H](C)C(=O)NCC(=O)N1CCC[C@H]1C(=O)N[C@@H](C)C(=O)N[C@H](C(=O)N[C@@H](C)C(=O)N[C@H](C(=O)N[C@H](C(=O)NCC(=O)N[C@@H](CCC(N)=O)C(=O)N[C@@H](C)C(=O)N[C@H](C(=O)N[C@@H](CCC(N)=O)C(=O)N[C@H](C(=O)N[C@@H](C)C(=O)N[C@@H](CCCCN)C(=O)N[C@@H](CS)C(N)=O)[C@@H](C)CC)[C@@H](C)O)C(C)C)C(C)C)C(C)C)[C@@H](C)CC [OMN6] (H-MCKWKLFKKIEKVGQNIRDGIIKAGPAVAVVGQATQIAKC-NH2; N-terminus and C-terminus assumed)
Inhibition of E. coli growth (OD600 nm) ([1]; 12.5 μM, 17-20 hours): completely inhibited bacterial growth | Duration of growth inhibition ([1]; 12.5 μM, E. coli): more than 17 hours | Colonies after plating (bactericidal nature) ([1]; E. coli, experiment groups of Example 2 plated): no colonies present | Erythrocytes Mean Corpuscular Volume (MCV) ([2]; OMN6 10 μM, 30 min): 64 | Number of live erythrocytes ([2]; OMN6 10 μM, 30 min): 1.69 cells*10^6/ml | Erythrocytes Mean Corpuscular Volume (MCV) ([2]; OMN6 10 μM, 60 min): 64 | Number of live erythrocytes ([2]; OMN6 10 μM, 60 min): 1.66 cells*10^6/ml | Erythrocytes Mean Corpuscular Volume (MCV) ([2]; OMN6 10 μM, 120 min): 63 | Number of live erythrocytes ([2]; OMN6 10 μM, 120 min): 1.68 cells*10^6/ml | Erythrocytes Mean Corpuscular Volume (MCV) ([2]; OMN6 10 μM, 180 min): 64 | Number of live erythrocytes ([2]; OMN6 10 μM, 180 min): 1.67 cells*10^6/ml | Erythrocytes Mean Corpuscular Volume (MCV) ([2]; OMN6 20 μM, 30 min): 64 | Number of live erythrocytes ([2]; OMN6 20 μM, 30 min): 1.65 cells*10^6/ml | Erythrocytes Mean Corpuscular Volume (MCV) ([2]; OMN6 20 μM, 60 min): 64 | Number of live erythrocytes ([2]; OMN6 20 μM, 60 min): 1.70 cells*10^6/ml | Erythrocytes Mean Corpuscular Volume (MCV) ([2]; OMN6 20 μM, 120 min): 63 | Number of live erythrocytes ([2]; OMN6 20 μM, 120 min): 1.71 cells*10^6/ml | Erythrocytes Mean Corpuscular Volume (MCV) ([2]; OMN6 20 μM, 180 min): 64 | Number of live erythrocytes ([2]; OMN6 20 μM, 180 min): 1.70 cells*10^6/ml | Erythrocytes Mean Corpuscular Volume (MCV) ([2]; OMN6 40 μM, 30 min): 64 | Number of live erythrocytes ([2]; OMN6 40 μM, 30 min): 1.60 cells*10^6/ml | Erythrocytes Mean Corpuscular Volume (MCV) ([2]; OMN6 40 μM, 60 min): 64 | Number of live erythrocytes ([2]; OMN6 40 μM, 60 min): 1.80 cells*10^6/ml | Erythrocytes Mean Corpuscular Volume (MCV) ([2]; OMN6 40 μM, 120 min): 63 | Number of live erythrocytes ([2]; OMN6 40 μM, 120 min): 1.77 cells*10^6/ml | Erythrocytes Mean Corpuscular Volume (MCV) ([2]; OMN6 40 μM, 180 min): 64 | Number of live erythrocytes ([2]; OMN6 40 μM, 180 min): 1.76 cells*10^6/ml | Hemolysis of human erythrocytes ([2]; human blood samples): hemolysis of cells did not occur | Inhibition of growth of E. coli NDM1 [3]: completely inhibited bacterial growth | Clinical signs (diarrhea, bloody diarrhea, stand-on-end hair, apathy or restlessness) ([4]; 5-day experiment): not observed | Mortality ([4]; 5-day experiment): not observed | Toxic or otherwise adverse effects ([4]; 5-day experiment): does not exert any toxic or otherwise adverse effects | Weight-loss ([4]; 5-day experiment): not observed | Hemolysis of erythrocytes (Free Hgb assay) ([4]; day 5): No evidence of hemolysis
